The source of these data is US12023345B2, “Compositions and methods for treating lysosomal disorders” (RUSH UNIVERSITY MEDICAL CENTER, priority 2014, dated 2024).

The target in data set [1] is T1, PPARα (Mus musculus, UniProt P23204).
T1 construct: endogenous in cells; host or cells: primary mouse astrocytes (nuclear extracts)
T1 sequence (P23204 1-468): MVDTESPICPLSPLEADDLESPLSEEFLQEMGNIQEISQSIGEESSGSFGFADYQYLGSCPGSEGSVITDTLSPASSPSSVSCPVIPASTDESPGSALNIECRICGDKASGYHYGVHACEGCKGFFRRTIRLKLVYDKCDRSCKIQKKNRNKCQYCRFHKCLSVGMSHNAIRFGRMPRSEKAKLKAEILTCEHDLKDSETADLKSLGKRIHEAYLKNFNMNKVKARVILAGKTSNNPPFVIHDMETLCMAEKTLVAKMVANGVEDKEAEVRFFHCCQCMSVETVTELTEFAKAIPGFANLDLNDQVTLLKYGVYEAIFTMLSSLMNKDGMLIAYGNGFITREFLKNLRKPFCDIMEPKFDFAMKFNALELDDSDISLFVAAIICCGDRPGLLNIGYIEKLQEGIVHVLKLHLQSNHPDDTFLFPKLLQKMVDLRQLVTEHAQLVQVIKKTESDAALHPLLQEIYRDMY
T1 sequence (P28700 1-467 partner): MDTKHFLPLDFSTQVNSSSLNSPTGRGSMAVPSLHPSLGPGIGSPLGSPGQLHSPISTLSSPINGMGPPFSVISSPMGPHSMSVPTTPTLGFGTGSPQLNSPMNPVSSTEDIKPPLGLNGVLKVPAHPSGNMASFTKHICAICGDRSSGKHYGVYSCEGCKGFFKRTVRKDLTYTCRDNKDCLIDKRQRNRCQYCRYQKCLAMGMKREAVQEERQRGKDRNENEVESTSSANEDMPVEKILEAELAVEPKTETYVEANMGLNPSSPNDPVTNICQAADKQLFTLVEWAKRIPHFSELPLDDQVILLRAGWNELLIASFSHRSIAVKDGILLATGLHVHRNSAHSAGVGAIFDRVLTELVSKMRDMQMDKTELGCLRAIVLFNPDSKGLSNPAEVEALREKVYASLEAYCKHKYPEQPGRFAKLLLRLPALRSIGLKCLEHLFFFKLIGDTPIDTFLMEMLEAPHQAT
In words: Electrophoretic mobility shift assay of DNA-binding activity of PPARα. Conditions: astrocytes, 5 μM aspirin, different min intervals. The format is cell-based. On the procedure: FIG. 14(A)-(B) illustrates activation of PPARα by aspirin in primary mouse astrocytes. 14(A) Cells were treated with 5 μM aspirin for different min intervals followed by isolation of nuclear extracts and electrophoretic mobility shift assay for monitoring DNA-binding activity of PPARα using PPARα-binding site of the Tfeb promoter as a probe. 14(B) Astrocytes isolated from wild type, PPARα (−/−) and PPARβ (−/−) mice were transfected with PPAR luciferase reporter (PPRE-x3-TK-luc) plasmid and after 24 h of transfection, cells were stimulated with different doses of aspirin. After 4 h, firefly luciferase activity was measured in total cell extracts. Results are mean +SD of three different experiments. ^ap<0.001 vs control.
Background: A gel shift assay detects complexes by their altered migration in electrophoresis.

For data set [2], the system named is Tfeb. In words: TFEB immunocytochemistry in mouse primary astrocytes and neurons. It counts as cell-based. Conditions: 5 μM aspirin, 12 h. On the procedure:
Isolation of Primary Mouse Astroglia: Astroglia were isolated from mixed glial cultures as described (24, 25) according to the procedure of Giulian and Baker (26). Briefly, on day 9, the mixed glial cultures were washed three times with Dulbecco's modified Eagle's medium/F-12 and subjected to shaking at 240 rpm for 2 h at 37° C. on a rotary shaker to remove microglia. After 2 days, the shaking was repeated for 24 h for the removal of oligodendroglia and to ensure the complete removal of all nonastroglial cells. The attached cells were seeded onto new plates for further studies.
Isolation of Primary Mouse Neurons: Fetal (E18-E16) mouse neurons were prepared as previously described (27) with modifications. Whole brains were removed and the cells were washed by centrifugation three times at 1200 rpm for 10 min, the pellet dissociated and the cells plated at 10% confluence in 8-well chamber slides pre-treated for >2 hr with Poly-D-Lysine (Sigma, St. Louis, MO). After 4 min, the non-adherent cell suspension was aspirated and […] complete Neurobasal media (Invitrogen) supplemented with 2% B27 was added to each well. The cells were incubated for 4 days prior to experimentation. […] The cells were stimulated with gemfibrozil in Neurobasal media supplemented with 2% B27 minus antioxidants (Invitrogen) for 24 hr prior to methanol fixation and immunostaining.
Immunostaining of Cells: Immunocytochemistry was performed as described earlier (29). Briefly, 8 well chamber slides containing mouse primary astrocytes, mouse neurons were cultured to 70-80% confluence were fixed with chilled Methanol (Fisher Scientific, Waltham, MA) overnight, followed by two brief rinses with filtered PBS. […] The samples were run in an EtOH and Xylene (Fisher) gradient, mounted, and observed under Olympus BX41 fluorescence microscope.

In data set [3] the test system is Tfeb. In words: TFEB mRNA by semi-quantitative RT-PCR in mouse primary astrocytes. The format is cell-based. The conditions noted are these: different concentrations, 5 hr, serum-free. Here is the method: Semi-Quantitative Reverse Transcriptase-Coupled Polymerase Chain Reaction (RT-PCR): Total RNA was isolated from mouse primary astrocytes and human primary astrocytes using RNA-Easy Qiagen (Valencia, CA) kit following manufactures protocol. Semi-quantitative RTPCR was carried out as described earlier (28) using oligo (dT) 12-18 as primer and moloney murine leukemia virus reverse transcriptase (MMLV-RT, Invitrogen) in a 20 μl reaction mixture. The resulting cDNA was appropriately amplified using Promega Master Mix (Madison, WI) and the following primers (Invitrogen) for murine genes: […]
Amplified products were electrophoresed on 2% agarose (Invitrogen) gels and visualized by ethidium bromide (Invitrogen) staining. Glyceraldehyde-3-phosphate dehydrogenase (Gapdh) mRNA was used as a loading control to ascertain that an equivalent amount of cDNA was synthesized from each sample.
Mouse primary astrocytes were incubated with different concentrations (see FIG. 9) of simvastatin and pravastatin (A), (B), cinnamic acid (C), and sodium phenylbutyrate and sodium benzoate (D) for 5 hr. under serum-free condition followed by monitoring the mRNA expression of TFEB by semi-quantitative RT-PCR. Sodium formate (D) was used as a negative control for sodium phenylbutyrate and sodium benzoate.

The conditions of data set [4]: at high doses; cited from earlier work.

In the case of `CC(=O)Oc1ccccc1C(=O)O` [aspirin], the “DNA-binding activity of PPARα (EMSA)” value in data set [1] is on record as “time-dependent increase in PPARα activation”. Also, the entries for the “TFEB expression (immunofluorescence)” value in data set [2] (PPARα (−/−) astrocytes), in data set [2] (PPARβ (−/−) astrocytes) and in data set [2] (WT astrocytes) were “not PPARα (−/−)”, “induced the expression of TFEB” and “induced the expression of TFEB”, respectively. In addition, the “TFEB mRNA expression (semi-quantitative RT-PCR)” value in data set [3] is given as “upregulation of TFEB mRNA expression”. Also, the toxic effects entry in data set [4] is “gastric ulcers, stomach bleeding, and tinnitus”.
